Like-named read-outs stand apart in the source and are kept apart here.
How the values were obtained:
Format in all cases: in vivo
rat [1] = experiment: Ulcerogen activity in the fasted rat (autopsic examination of stomach, jejunum, large intestine and liver); details: 5 mg/kg
Description: In order to complete the picture of the possible ulcerogen activity, in the rat, of the product which is the object of this invention, a further research on the rat as against Product A, was performed.
Both the test molecules were suspended in 5% arabic gum and taken to solution.
The pharmacological treatment at the standard dose of 5 mg/kg was effected orally by means of a gastro-oesophageal probe.
The groups of animals were treated after 9, 24, 31, 50, 53, 56, 60 and 70 hours from beginning of the fasting. During the fasting period the animals received subcutaneously, 2 ml/die/animal of a 5% glucose solution in […]. The animals were sacrificed, by decapitation, at 48 and 72 hours from beginning of the fasting; there were drawn for autopsic examination, jejunum and large intestine, which were examined microscopically in order to detect the presence of any possible ulcerations.

[2] = tested on: paw-oedema, induced by means of sub-plantar injection of carrageenin; experiment: Anti-phlogistic activity: carrageenin-induced paw-oedema in the rat; details: oral
Description: In order to show the therapeutical activity of the derivative, which is an object of this invention, a research was carried out firstly on the anti-phlogistic activity as compared with the one of Product A.
The research was carried out in the rat by using the test of paw-oedema, induced by means of sub-plantar injection of carrageenin in a 1% solution. 0.1 ml of this solution was injected to each animal.
One hour before inoculation of the oedemigenous agent, the two test drugs were administered orally (gastric probe) to the different groups, according to the experimental scheme, and contemporaneously were measured, with a base value, the volume of the right untreated paw.
The treatment was effected on lots of five male animals of average weight of 240-270 g., according to the following experimental scheme:
1--three lots of control animals: 10 ml/kg mucilage of arabic gum;
2--one lot of animals treated with Product A--5 mg/kg;
3--one lot of animals treated with Product A--5.3 mg/kg;
4--one lot of animals treated with Product A--7 mg/kg;
5--one lot of animals treated with Product B--5 mg/kg;
6--one lot of animals treated with Product B--5.3 mg/kg;
7--one lot of animals treated with Product B--7 mg/kg.

mouse [3] = experiment: Acute toxicity in the mouse, orally; details: for Autopsical examination (gastroenteric hyperemia, ulcers): oral
From the text: (§1) Firstly, the acute and subacute toxicity in the mouse orally has been tested.
(§2) Table 1- Acute toxicity, in the mouse, of 1-(p-chlorobenzoyl)5-methoxy-2-methylindole-3-acetic acid (Product A) and of 1-(p-chlorobenzoyl) -5-methoxy-2-methylindole-3-acet-3-oxo-1-isobenzofuranyl ester derivative (Product B)

[4] = Acute toxicity in the mouse, orally; details: in vivo, oral, read-out: Mortality at 10th day %
From the text: as §1, §2

rat [5] = experiment: Ulcerogen activity in the fasted rat (autopsic examination of stomach, jejunum, large intestine and liver); details: 5 mg/kg; remark: listed apart in the source
mouse [6] = experiment: Antalgic activity in the mouse: tail-compression test (Bianchi C. test); details: oral; for Time for which the algic stimulus is tolerated: two hours from administration, equal doses
Description: The time elapsing between the algic stimulus and the reaction of the mouse trying to get out of said stimulus was determined in seconds.
The measure was effected at the times 0, 1, 2, 3 hours from administation of the derivative object of the present invention (Product B) and from administration of the comparison compound (Product A).
1--two lots of control animals: 0.5 ml/animal of mucilage of 5% arabic gum;
2--one lot treated with Product A--4 mg/kg;
3--one lot treated with Product A--7 mg/kg;
4--one lot treated with Product B--4 mg/kg;
5--one lot treated with Product B--7 mg/kg.

[7] = oral, sacrificed at 72 hours from beginning of fasting (8 administrations)
[8] = oral, sacrificed at 48 hours from beginning of fasting (3 administrations)

Row | SMILES | Caecum, autopsic examination (rat [1]; in vivo, po) | Liver, macroscopic and microscopic examination (rat [1]; in vivo, po) | Jejunum, autopsic examination (rat [1]; [7]) | Anti-phlogistic effect (onset and extent) compared with the comparison product [2] | Anti-phlogistic activity compared with Product A ([2]; doses being equal (5, 5.3, 7 mg/kg), within the first three hours) | Toxic component compared with the free acid (mouse [3]; in vivo) | Autopsical examination (gastroenteric hyperemia, ulcers) (mouse [3]) | mortality at 240 h ([4]; dose 10 mg/kg) [%] | mortality at 240 h ([4]; dose 18 mg/kg) [%] | mortality at 240 h ([4]; dose 20 mg/kg) [%] | mortality at 240 h ([4]; dose 25 mg/kg) [%] | mortality at 240 h ([4]; dose 28 mg/kg) [%] | Stomach, autopsic examination (rat [5]; in vivo, po) | Antalgic activity compared with the comparison product (mouse [6]; mouse, 4 and 7 mg/kg) | Time for which the algic stimulus is tolerated (mouse [6]) [s] | Large intestine (caecum), autopsic examination (rat [1]; [8]) | Small intestine (jejunum), autopsic examination (rat [1]; [8]) | Caecum, autopsic examination (rat [1]; [7]) | Stomach, autopsic examination (rat [5]; [8]) | Stomach, autopsic examination (rat [5]; [7])
1 | COc1ccc2c(c1)c(CC(=O)OC1OC(=O)c3ccccc31)c(C)n2C(=O)c1ccc(Cl)cc1 (stereo not shown) [Product B, 1-(p-chlorobenzoyl)-5-methoxy-2-methyl indole-3-acetic acid 3-oxo-1-isobenzofuranyl ester] | None at caecum level | nothing pathological resulted | Jejunum slightly hyperemic | remarkably more precocious, as well as more marked | signficantly more active, doses being equal, than the comparison product (Product A) within the first three hours | lesser than the one of the free acid | only a slight gastroenteric hyperemia, but no ulcer | 20 | 40 | 50 | 60 | 70 | No considerable alteration at stomach level | quite superior | 45 |  |  |  |  | 
2 | COc1ccc2c(c1)c(CC(=O)O)c(C)n2C(=O)c1ccc(Cl)cc1 [Product A, 1-(p-chlorobenzoyl)-5-methoxy-2-methylindole-3-acetic acid, reference compound] |  |  | Jejunum diffusely hyperemic |  |  |  | very marked gastroenteric hyperemia with presence of numerous ulcers | 40 | 70 | 90 | 100 | 100 |  |  | ≤ 30 | highly hyperemic | slightly hyperemic, with presence of microulcers | Caecum with hemorrhagic microareas | Stomach diffusely hyperemic | Stomach highly hyperemic with presence of evident macroulcers
